# Measured values taken from US12552848B2, “Hydrochloride salts of C5a receptor agonist peptides” (Board of Regents of the University of Nebraska, priority 2017, dated 2026).
# Non-standard residues stand in square brackets, D forms with d. No end group written: not given here. NMeL = CN[C@@H](CC(C)C)C(=O)O
# Columns and labels:
# mouse spleen cells = assay: 24-hour dose response: IL-6 release from mouse spleen cells (ELISA of supernatants); assay type: cell-based; conditions: for IL-6: 24 hrs incubation, mouse spleen cells, ± SD
# Protocol: (§1) Salt forms of EP67 (SEQ ID NO:2) generated using the above procedures were incubated at varying concentrations with murine splenocytes over time.
# A 24-hour dose response was investigated by incubating mouse spleen cells for 24 hrs with varying concentrations of the EP67 salts. Supernatants were collected and assayed for IL-6 by ELISA.
# mice spleen cells = assay: IL-6 kinetics: IL-6 release over time from mice spleen cells; assay type: cell-based, mouse; conditions: for IL-6: 100 μg/mL, mice spleen cells, ± SD
# Protocol: as §1
# Next, IL-6 kinetics were investigated by incubating mice spleen cells with 100 μg/mL of each salt form, and the release was examined over time.
Substance,IL-6 (mouse spleen cells; 0.1 μg/mL activator) [pg/mL],IL-6 (mouse spleen cells; 1.0 μg/mL activator) [pg/mL],IL-6 (mouse spleen cells; 10 μg/mL activator) [pg/mL],IL-6 (mouse spleen cells; 100 μg/mL activator) [pg/mL],"total amount of cytokine (IL-6) released from murine splenocytes, compared with other salt forms (mouse spleen cells; varying concentrations, murine splenocytes)",IL-6 (mice spleen cells; time collected 6 hr) [pg/mL],IL-6 (mice spleen cells; time collected 24 hr) [pg/mL],IL-6 (mice spleen cells; time collected 48 hr) [pg/mL],IL-6 (mice spleen cells; time collected 72 hr) [pg/mL],"kinetics of IL-6 release (time to maximal release), compared with other salt forms (mice spleen cells; murine splenocytes, over time)"
"EP67•HCl: HCl salt form of EP67 (SEQ ID NO:2), a response selective C-terminal analog of C5a (YSFKDMP[NMeL][dA]R-OH; also: HCl salt)",176 ± 3,225 ± 1,738 ± 5,1163 ± 2,"outperformed the acetate (OAc) and, particularly, the TEA salt forms",47 ± 1,1163 ± 2,923 ± 6,200 ± 11,maximal IL-6 release quicker than the other two salt forms
"EP67•OAc^−: acetate salt form of EP67 (SEQ ID NO:2), comparator salt (YSFKDMP[NMeL][dA]R-OH; also: acetate salt)",188 ± 1,325 ± 23,225 ± 20,780 ± 9,,188 ± 1,325 ± 23,900 ± 17,,
"EP67•TFA: TFA salt form of EP67 (SEQ ID NO:2), comparator salt (YSFKDMP[NMeL][dA]R-OH; also: TFA salt)",178 ± 1,185 ± 2,308 ± 7,803 ± 6,,55 ± 1,803 ± 6,442 ± 13,75 ± 6,
